HELM strings list units from the 5' end as sugar, base in round brackets, then linkage (d deoxyribose, r ribose, m 2'-O-methyl, p phosphodiester). Strings are as the collection lists them; they lack the last nucleoside at the 3' end of the tested compound. [moe] = 2'-O-(2-methoxyethyl) (MOE); [sp] = phosphorothioate linkage; [m5C] = 5-methylcytosine

In the data set the target is GFAP. As to the kind of experiment: mouse, dose not given. The note with it: ASO.
“RNA1{[moe](T)[sp].[moe](T)p.[moe](T)p.[moe](A)p.[moe](T)[sp].d(T)[sp].d(T)[sp].d(T)[sp].d(T)[sp].d([m5C])[sp].d([m5C])[sp].d(T)[sp].d([m5C])[sp].d(A)[sp].d(G)[sp].[moe]([m5C])p.[moe](G)p.[moe](A)[sp].[moe]([m5C])}$$$$ (last 3' nucleoside missing)” showed a 3 h FOB score of 2 score 0-7.
Then “RNA1{[moe](G)[sp].[moe](T)p.[moe]([m5C])p.[moe](T)p.[moe](T)[sp].d(T)[sp].d(A)[sp].d(T)[sp].d(T)[sp].d(T)[sp].d(T)[sp].d(T)[sp].d([m5C])[sp].d([m5C])[sp].d(T)[sp].[moe]([m5C])p.[moe](A)p.[moe](G)[sp].[moe]([m5C])}$$$$ (last 3' nucleoside missing)”, with 5 score 0-7; and “RNA1{[moe](T)[sp].[moe](T)p.[moe](G)p.[moe](G)p.[moe]([m5C])p.d(A)[sp].d(G)[sp].d(T)[sp].d(A)[sp].d(T)[sp].d(T)[sp].d(A)[sp].d([m5C])[sp].d([m5C])[sp].d(T)[sp].[moe]([m5C])p.[moe](T)p.[moe](A)[sp].[moe]([m5C])}$$$$ (last 3' nucleoside missing)”, with 0 score 0-7; and “RNA1{[moe](A)[sp].[moe](G)p.[moe](G)p.[moe]([m5C])p.[moe](T)[sp].d(T)[sp].d(T)[sp].d(T)[sp].d(G)[sp].d(A)[sp].d(G)[sp].d(A)[sp].d(T)[sp].d(A)[sp].d(T)[sp].[moe]([m5C])p.[moe](T)p.[moe](T)[sp].[moe](G)}$$$$ (last 3' nucleoside missing)”, with 6 score 0-7.
On to “RNA1{[moe]([m5C])[sp].[moe]([m5C])p.[moe]([m5C])p.[moe]([m5C])p.[moe](T)[sp].d(T)[sp].d(T)[sp].d([m5C])[sp].d(T)[sp].d([m5C])[sp].d(T)[sp].d([m5C])[sp].d([m5C])[sp].d(T)[sp].d(G)[sp].[moe](T)p.[moe](T)p.[moe](T)[sp].[moe]([m5C])}$$$$ (last 3' nucleoside missing)”, for which the 3 h FOB score amounted to 2 score 0-7.
Regarding “RNA1{[moe](T)[sp].[moe]([m5C])p.[moe](T)p.[moe](G)p.[moe](T)[sp].d(G)[sp].d([m5C])[sp].d(T)[sp].d(T)[sp].d(T)[sp].d(A)[sp].d(G)[sp].d(T)[sp].d(G)[sp].d(A)[sp].[moe]([m5C])p.[moe]([m5C])p.[moe](T)[sp].[moe](G)}$$$$ (last 3' nucleoside missing)”, the 3 h FOB score was determined as 4 score 0-7.
On to “RNA1{[moe]([m5C])[sp].[moe](T)p.[moe]([m5C])p.[moe](T)p.[moe](A)[sp].d(T)[sp].d([m5C])[sp].d([m5C])[sp].d([m5C])[sp].d(T)[sp].d([m5C])[sp].d([m5C])[sp].d([m5C])[sp].d(A)[sp].d(G)[sp].[moe]([m5C])p.[moe](A)p.[moe]([m5C])[sp].[moe]([m5C])}$$$$ (last 3' nucleoside missing)”, for which the 3 h FOB score worked out at 2 score 0-7.
Substance “RNA1{[moe]([m5C])[sp].[moe](A)p.[moe]([m5C])p.[moe](G)p.d(T)[sp].d([m5C])[sp].d(A)[sp].d([m5C])[sp].d(A)[sp].d(T)[sp].d(T)[sp].d([m5C])[sp].d(A)[sp].d([m5C])[sp].[moe](T)p.[moe](A)p.[moe](A)p.[moe](T)[sp].[moe](A)}$$$$ (last 3' nucleoside missing)” registered a 3 h FOB score of 0 score 0-7.
In turn, “RNA1{[moe](G)[sp].[moe](T)p.[moe](G)p.[moe]([m5C])p.[moe](T)[sp].d(T)[sp].d(T)[sp].d(A)[sp].d(G)[sp].d(T)[sp].d(G)[sp].d(A)[sp].d([m5C])[sp].d([m5C])[sp].d(T)[sp].[moe](G)p.[moe](T)p.[moe](G)[sp].[moe](A)}$$$$ (last 3' nucleoside missing)” registered a 3 h FOB score of 5 score 0-7.
In the case of “RNA1{[moe](A)[sp].[moe](T)p.[moe](T)p.[moe](T)p.[moe](G)p.[moe](T)p.d([m5C])[sp].d(T)[sp].d(T)[sp].d(T)[sp].d(A)[sp].d(T)[sp].d(T)[sp].d(T)[sp].d(T)[sp].d(T)[sp].[moe]([m5C])p.[moe]([m5C])[sp].[moe](T)}$$$$ (last 3' nucleoside missing)” it was 0 score 0-7.
“RNA1{[moe](T)[sp].[moe](G)p.[moe](G)p.[moe]([m5C])p.d(A)[sp].d(G)[sp].d(T)[sp].d(A)[sp].d(T)[sp].d(T)[sp].d(A)[sp].d([m5C])[sp].d([m5C])[sp].d(T)[sp].[moe]([m5C])p.[moe](T)p.[moe](A)p.[moe]([m5C])[sp].[moe](T)}$$$$ (last 3' nucleoside missing)” displayed a 3 h FOB score of 1 score 0-7.
“RNA1{[moe](G)[sp].[moe](G)p.[moe](A)p.[moe](G)p.[moe](A)[sp].d(A)[sp].d(G)[sp].d(G)[sp].d(T)[sp].d([m5C])[sp].d(T)[sp].d(G)[sp].d([m5C])[sp].d(A)[sp].d([m5C])[sp].[moe](G)p.[moe](G)p.[moe](G)[sp].[moe](A)}$$$$ (last 3' nucleoside missing)” had a 3 h FOB score of 7 score 0-7.
Then “RNA1{[moe](T)[sp].[moe](G)p.[moe](T)p.[moe](G)p.[moe](T)p.[moe](A)p.d(T)[sp].d(T)[sp].d(A)[sp].d(G)[sp].d(G)[sp].d(A)[sp].d(T)[sp].d([m5C])[sp].d([m5C])[sp].d([m5C])[sp].[moe](A)p.[moe](T)[sp].[moe]([m5C])}$$$$ (last 3' nucleoside missing)”, with 3 score 0-7.
Turning to “RNA1{[moe](G)[sp].[moe](A)p.[moe](G)p.[moe](T)p.[moe](T)[sp].d(T)[sp].d([m5C])[sp].d(T)[sp].d(T)[sp].d(G)[sp].d(T)[sp].d(T)[sp].d(A)[sp].d(G)[sp].d(T)[sp].[moe](T)p.[moe](G)p.[moe](G)[sp].[moe](A)}$$$$ (last 3' nucleoside missing)”, the 3 h FOB score was found to be 7 score 0-7.
As for “RNA1{[moe](T)[sp].[moe]([m5C])p.[moe](T)p.[moe](G)p.[moe]([m5C])[sp].d([m5C])[sp].d(A)[sp].d(T)[sp].d(T)[sp].d(T)[sp].d(A)[sp].d(T)[sp].d([m5C])[sp].d(T)[sp].d(G)[sp].[moe](T)p.[moe](G)p.[moe]([m5C])[sp].[moe](T)}$$$$ (last 3' nucleoside missing)”, the 3 h FOB score was 0 score 0-7.
“RNA1{[moe]([m5C])[sp].[moe](A)p.[moe]([m5C])p.[moe](A)p.[moe](T)p.[moe](T)p.d([m5C])[sp].d(A)[sp].d([m5C])[sp].d(T)[sp].d(A)[sp].d(A)[sp].d(T)[sp].d(A)[sp].d(T)[sp].d(T)[sp].[moe](T)p.[moe](A)[sp].[moe](A)}$$$$ (last 3' nucleoside missing)” showed a 3 h FOB score of 0 score 0-7.
In the case of “RNA1{[moe](T)[sp].[moe](A)p.[moe](T)p.[moe](T)p.[moe](A)[sp].d(G)[sp].d(G)[sp].d(A)[sp].d(T)[sp].d([m5C])[sp].d([m5C])[sp].d([m5C])[sp].d(A)[sp].[moe](T)p.[moe]([m5C])p.[moe](T)[sp].[moe](A)}$$$$ (last 3' nucleoside missing)” it was 3 score 0-7; in that of “RNA1{[moe](T)[sp].[moe]([m5C])p.[moe](A)p.[moe]([m5C])p.[moe](A)p.[moe](T)p.d(T)[sp].d([m5C])[sp].d(A)[sp].d([m5C])[sp].d(T)[sp].d(A)[sp].d(A)[sp].d(T)[sp].d(A)[sp].d(T)[sp].[moe](T)p.[moe](T)[sp].[moe](A)}$$$$ (last 3' nucleoside missing)”, 0 score 0-7.
With “RNA1{[moe](G)[sp].[moe](A)p.[moe](A)p.[moe](T)p.[moe](G)[sp].d(G)[sp].d(T)[sp].d(G)[sp].d(A)[sp].d(T)[sp].d([m5C])[sp].d([m5C])[sp].d(G)[sp].d(G)[sp].d(T)[sp].[moe](T)p.[moe]([m5C])p.[moe](T)[sp].[moe]([m5C])}$$$$ (last 3' nucleoside missing)”, the 3 h FOB score is 5 score 0-7.
In turn, “RNA1{[moe](A)[sp].[moe]([m5C])p.[moe](G)p.[moe](T)p.[moe]([m5C])p.d(A)[sp].d([m5C])[sp].d(A)[sp].d(T)[sp].d(T)[sp].d([m5C])[sp].d(A)[sp].d([m5C])[sp].d(T)[sp].d(A)[sp].[moe](A)p.[moe](T)p.[moe](A)[sp].[moe](T)}$$$$ (last 3' nucleoside missing)” came in with a 3 h FOB score of 0 score 0-7.
On to “RNA1{[moe](G)[sp].[moe](T)p.[moe](G)p.[moe]([m5C])p.[moe](T)[sp].d(G)[sp].d(A)[sp].d(G)[sp].d(A)[sp].d(A)[sp].d(T)[sp].d([m5C])[sp].d(A)[sp].d(A)[sp].d(G)[sp].[moe]([m5C])p.[moe](T)p.[moe]([m5C])[sp].[moe]([m5C])}$$$$ (last 3' nucleoside missing)”, for which the 3 h FOB score is 0 score 0-7.
With “RNA1{[moe](T)[sp].[moe](T)p.[moe](T)p.[moe](T)p.[moe](G)[sp].d(T)[sp].d(G)[sp].d(T)[sp].d(G)[sp].d(T)[sp].d(G)[sp].d(A)[sp].d(G)[sp].d(T)[sp].d(A)[sp].[moe](A)p.[moe](G)p.[moe](A)[sp].[moe](A)}$$$$ (last 3' nucleoside missing)”, the 3 h FOB score was 7 score 0-7.
Substance “RNA1{[moe](T)[sp].[moe]([m5C])p.[moe](A)p.[moe]([m5C])p.[moe](A)[sp].d(T)[sp].d(T)[sp].d([m5C])[sp].d(A)[sp].d([m5C])[sp].d(T)[sp].d(A)[sp].d(A)[sp].[moe](T)p.[moe](A)p.[moe](T)[sp].[moe](T)}$$$$ (last 3' nucleoside missing)” displayed a 3 h FOB score of 0 score 0-7.
With “RNA1{[moe]([m5C])[sp].[moe](A)p.[moe](G)p.[moe](G)p.[moe](G)[sp].d([m5C])[sp].d(T)[sp].d(A)[sp].d([m5C])[sp].d([m5C])[sp].d(T)[sp].d(T)[sp].d(G)[sp].d(T)[sp].d([m5C])[sp].[moe](T)p.[moe](G)p.[moe](T)[sp].[moe](G)}$$$$ (last 3' nucleoside missing)”, the 3 h FOB score is 6 score 0-7.
Then “RNA1{[moe]([m5C])[sp].[moe](T)p.[moe](G)p.[moe]([m5C])p.[moe]([m5C])[sp].d(A)[sp].d(T)[sp].d(T)[sp].d(T)[sp].d(A)[sp].d(T)[sp].d([m5C])[sp].d(T)[sp].[moe](G)p.[moe](T)p.[moe](G)[sp].[moe]([m5C])}$$$$ (last 3' nucleoside missing)”, with 1 score 0-7.
